In patent US12295997B2, “Prostate neoantigens and their uses” (Janssen Biotech, Inc., priority 2020, dated 2025):

What was measured:
[1] = system: CD8+ and CD4+ T cells (autologous CD3+ Pan-T cells isolated from human normal PBMCs); experiment: Endogenous autologous normal donor restimulation assay (Ad5-transduced CD1c+ dendritic cells, TNFα/IFNγ flow cytometry); assay type: cell-based; conditions: Table 27, endogenous expression, peptide pool restimulation, highest across sixteen normal donors
Procedure: CD1c+ Dendritic Cells (DC) isolated from human normal PBMCs were thawed using media (IMDM (Gibco) supplemented with glutamine, HEPES, 5% human serum (Sigma), and 1×Pen-Strep). DC cells were resuspended in media supplemented with IL-4 (Peprotech, 80 ng/mL) and GM-CSF (Gibco, 80 ng/mL), plated in 6 well microplates, and rested overnight at 37° C. (5% CO2). The following day, DC cells were counted and plated in a 96 well round bottom microplate at a concentration of 30,000 viable cells per well. Ad5 vectors (Vector Biolabs) were dilute in media to an MOI (Multiplicity Of Infection) of 5000 based on Plaque Forming Units. Ad5 vectors for the CEF pool and a “null” were used as controls. DCs were transduced with Ad5 vectors overnight at 37° C. (5% CO2). The following day, the Ad5 vectors were washed off the plate by three sequential centrifugation/aspiration steps using sterile Phosphate Buffered Saline. After the final wash, transduced DCs were resuspended in 100 μL media. Autologous CD3+ Pan-T cells isolated from human normal PBMCs were thawed using media. Pan-T cells were added to the irradiated DCs at 300,000 viable cells per well (100 μL/well). Human IL-15 (Peprotech) was added to all wells at final concentration of 10 ng/mL.
Plates were incubated at 37° C. (5% CO2) for a total of 12 days. Media was refreshed every 2-3 days with IL-15 (10 ng/mL final concentration) and IL-2 (R&D systems, 10 IU/mL final concentration). On day 11 lyophilized peptides (15-mer overlapping peptides) were solubilized in 100% DMSO and pooled by neoantigen to between 5 mg/mL and 20 mg/mL. Neoantigen peptides pools were added to cells for a final concentration of 2.5 μg/mL to 10 μg/mL. CEF Peptide Pool “Plus” (Cellular Technologies, Ltd.) was utilized as a positive control and DMSO at the same final concentration as the experimental peptides was utilized as a negative control. Protein Inhibitor Cocktail (eBioscience) was added to every well and plate was incubated overnight at 37° C. (5% CO2).
(§1) On day 12, cells were stained for intracellular flow cytometry analysis. The cells were washed with PBS and stained with Live/Dead Fixable Aqua Dead Cell stain (Thermo-Fisher). Following the live/dead stain, cells were blocked using Biotin-Free Fc Receptor Blocker (Accurate Chemical & Scientific Corp). Extracellular cellular flow panel ([…] per well in 50 μL) consisted of CD3 PerCP-Cy5.5 (Biolegend), CD4 BV421 (Biolegend), and CD8 APC-Cy7 (Biolegend). After extracellular staining, cells were fixed using Foxp3/fTranscription Factor Staining Buffer Set (eBioscience) and stained for intracellular proteins (1:50 dilution) using TNFα FITC (R&D Systems) and IFNγ BV785 (Biolegend). Cells were washed and resuspended in stain buffer and analyzed using a BD Celesta flow cytometer.
Flow cytometry cell staining analysis was completed using FlowJo v10. Cells were gated on live, singlet, CD3+ cells. The CD8+ and CD4+ T cells were analyzed for TNFα/IFNγ expression and the frequency of double positive TNFα/IFNγ CD8+ and the frequency of double positive TNFα/IFNγ CD4+ T cells were recorded. Responses were assessed to be positive when the frequency of double positive TNFα/IFNγ CD8+ or TNFα/IFNγ CD4+ T cells due to stimulation with an experimental peptide pool was increased greater than or equal to 3-fold over the DMSO only negative control for that donor and at least 0.01%.
For three of the neoantigens, an Ad5 vector was designed to transduce normal Dendritic cells with the neoantigens. This assay assessed the ability of the endogenously expressed and presented neoantigens to activate autologous T cells following overlapping 15-mer peptide pools restimulation using the endogenous autologous normal donor restimulation assay described in Example 1 utilizing TNFα and IFNγ production by CD8^+ and CD4^+ T cells as a readout. […] Sixteen donors were used to assess endogenous immunogenicity.

[2] = system: CD8+ and CD4+ T cells (autologous CD3+ Pan-T cells isolated from human normal PBMCs); experiment: Exogenous autologous normal donor restimulation assay (15-mer overlapping peptide pools on CD1c+ dendritic cells, TNFα/IFNγ flow cytometry); assay type: cell-based; conditions: Table 25, 15-mer overlapping peptide pool
Summary of the method: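 Autologous CD3+ Pan-T cells from normal donors were co-cultured 12 days with irradiated CD1c+ DCs pulsed with 15-mer overlapping neoantigen peptide pools at 2.5–10 μg/mL, with IL-15 and IL-2 support. Cells were restimulated on day 11, then TNFα/IFNγ double-positive CD8+ and CD4+ frequencies read by flow. Positive means ≥3-fold over DMSO and ≥0.01%.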

HLA-A*01:01 = HLA-A*01:01 (Homo sapiens, UniProt P04439, A114D/A174V/A182V/D101N/D185E/E176A/E190D/L180R/Q94H/R68K/S129P/T187R/V100A/V91M/W191G); experiment: In vitro binding of neoantigens to class I MHC (UV peptide exchange, HLA class I ELISA); conditions: 100% = same binding as positive control peptide
Procedure: (§2) The 9 mer peptides identified by bioinformatics analysis were analyzed for their binding propensities to 6 common HLA class I alleles (HLA-A*01:01, A*02:01, A*03:01, A*24:02, B*07:02, B*08:01). The principle of the method is briefly described below and consists of two parts, one involving exchange of peptide with a positive control induced by Ultraviolet (UV) radiation, and the second is an enzyme immunoassay to detect stable HLA-peptide and empty HLA complexes.
(§3) HLA-bound peptides are critical for the stability of the HLA complex. A conditional HLA class I complex was stabilized by an UV-labile peptide utilizing a different peptide (Pos) for each HLA (Pos: HLA-A*01:01: […](SEQ ID NO: 409), HLA-A*02:01: […] (SEQ ID NO: 410), HLA-A*03:01: […] (SEQ ID NO: 411), HLA-A*24:02: […] (SEQ ID NO: 412), HLA-B*07:02: […] (SEQ ID NO: 413), HLA-B*08:01: […] (SEQ ID NO: 414), which could be cleaved by UV irradiation when bound to the HLA molecule. Upon cleavage, the resulting peptide fragments dissociated from the HLA class I complex since their length was insufficient to bind stably to HLA. Under the conditions in which peptide cleavage was performed (neutral pH, on melting ice), the peptide-free HLA complex remained stable.
(§4) The exchange efficiency between the peptide of interest and Pos was analyzed using an HLA class I ELISA. The combined technologies allowed the identification of ligands for an HLA molecule of interest which are potentially immunogenic.
(§5) Exchange control peptide Pos was a high affinity binder to the relevant HLA class I allele while exchange control peptide Neg was a non-binder. The UV control represented UV-irradiation of conditional HLA class I complex in the absence of a rescue peptide.
(§6) The HLA class I ELISA is an enzyme immunoassay based on the detection of beta2-microglobulin (B2M) of (peptide-stabilized) HLA class I complexes. To this end streptavidin was bound onto polystyrene microtiter wells. After washing and blocking, HLA complex present in exchange reaction mixtures or ELISA controls was captured by the streptavidin on the microtiter plate via its biotinylated heavy chain. Non-bound material was removed by washing. Subsequently, horseradish peroxidase (HRP)-conjugated antibody to human B2M was added. The HRP-conjugated antibody binds only to an intact HLA complex present in the microtiter well because unsuccessful peptide exchange results in disintegration of the original UV-sensitive HLA complex upon UV illumination. In the latter case B2M was removed during the washing step. After removal of non-bound HRP conjugate by washing, a substrate solution was added to the wells. A coloured product formed in proportion to the amount of intact HLA complex present in the samples. After the reaction was terminated by the addition of a stop solution, absorbance was measured in a microtiter plate reader. The absorbance was normalized to the absorbance of an exchange control peptide (represents 100%). Suboptimal HLA binding of peptides with a moderate to low affinity for HLA class I molecules can also be detected by this ELISA technique (Rodenko, B et al. (2006) Nature Protocols 1: 1120-32).
(§7) Peptides that had 10% or greater exchange efficiency in one of the 6 HLA alleles were considered for further immunogenicity testing and analysis.
(§8) Binding of select neoepitopes to HLA-A*01:01, HLA-A*02:01, HLA-A*03:01, HLAA*24:02, HLAAB*07:02 and HLA-B*08:01 was evaluated using the assay described in Example 1. […] As a criterion for further evaluation, peptides with an exchange rate of at least 10% with the corresponding Pos peptide for at least one of the 6 HLA alleles that we considered for further evaluation. The exchange rates with the allele specific Pos peptides, of the 24 neoantigens so identified are summarized below in Table 17. Higher percentages correspond to stronger binding to the HLA allele. […]

HLA-A*02:01 = HLA-A*02:01 (Homo sapiens, UniProt P04439, D140Y/D185E/D98H/E176V/E277Q/G131W/G231S/I119V/I121R/I166T/I218V/L300P/L318F/N151K/N90K/P208A/P217A/Q86G/Q94H/R138H/R169H/T345S); experiment: as above; conditions: 100% = same binding as positive control peptide
Procedure: as §2, §3, §4, §5, §6, §7, §8

HLA-B*07:02 = HLA-B*07:02 (Homo sapiens, UniProt P01889); experiment: as above; conditions: 100% = same binding as positive control peptide
Procedure: as §2, §3, §4, §5, §6, §7, §8

HLA-A*24:02 = HLA-A*24:02 (Homo sapiens, UniProt P04439, D101N/D140Y/D185E/E176V/E190D/F33S/G103R/G107R/I119L/I121M/I306V/K335N/L105A/L180Q/L300P/N151K/N90K/Q86E/Q94H/R106L/R138H/R89G/T104I/T345S/V100E/W191G/Y123F); experiment: as above; conditions: 100% = same binding as positive control peptide
Procedure: as §2, §3, §4, §5, §6, §7, §8

HLA-A*03:01 = HLA-A*03:01 (Homo sapiens, UniProt P04439); experiment: as above; conditions: 100% = same binding as positive control peptide
Procedure: as §2, §3, §4, §5, §6, §7
Binding of select neoepitopes to HLA-A*01:01, HLA-A*02:01, HLA-A*03:01, HLAA*24:02, HLAAB*07:02 and HLA-B*08:01 was evaluated using the assay described in Example 1. […] As a criterion for further evaluation, peptides with an exchange rate of at least 10% with the corresponding Pos peptide for at least one of the 6 HLA alleles that we considered for further evaluation. The exchange rates with the allele specific Pos peptides, of the 24 neoantigens so identified are summarized below in Table 17. Higher percentages correspond to stronger binding to the HLA allele.

[3] = system: CD8+ T cells in PBMCs from human patients with metastatic castrate-resistant prostate cancer; experiment: Patient PBMC restimulation assay (in vitro immunogenicity, TNFα/IFNγ intracellular flow cytometry); assay type: cell-based; conditions: 9-mer peptide
Procedure: PBMCs from human patients with metastatic castrate-resistant prostate cancer were thawed using media (RPMI 1640 supplemented with Glutamax, 10% HI FBS, and 1× Sodium Pyruvate). Cells were counted and plated in a 96 well round bottom microplate at a concentration of 250,000 viable cells per well. Lyophilized peptides were solubilized in 100% DMSO and diluted in media to 10 μg/mL. Neoantigen peptides were added in equal volume to PBMCs for a final concentration of 5 μg/mL. CEF Peptide Pool “Plus” (Cellular Technologies, Ltd.) was utilized as a positive control and DMSO at the same final concentration as the experimental peptides was utilized as a negative control. Human IL-15 (Peprotech) was added to all wells at final concentration of 10 ng/mL.
Plates were incubated at 37° C. (5% CO2) for a total of 13 days. Media was refreshed every 2 days with IL-15 (10 ng/mL final concentration) and IL-2 (R&D systems, 10 IU/mL final concentration). On day 12, PBMCs were re-stimulated with identical experimental peptides or controls, at same concentration as peptide stimulation on Day 1. After 1-hour incubation, protein Inhibitor Cocktail (eBioscience) was added to every well and plate was incubated overnight.
as §1, with “13,” for “12,”
Flow cytometry cell staining analysis was completed using FlowJo v10. Cells were gated on live, singlet, CD3+ cells. The CD8+ T cells were analyzed for TNFα/IFNγ expression and the frequency of double positive TNFα/IFNγ CD8+ T cells was recorded. Responses were assessed to be positive when the frequency of double positive TNFα/IFNγ CD8+ T cells due to stimulation with an experimental peptide was increased greater than or equal to 2-fold over the DMSO only negative control for that patient. Peptides were analyzed in 1 to 7 patient samples.
The 9 mer fragments shown in Table 13 were assessed for their ability to activate T cells using the Patient PBMC restimulation assay described in Example 1 using TNFα and IFNγ production by CD8^+ T cells as a readout. Self-antigens shown in Table 15 were also used in the assays. […] PBMCs from ten patients were evaluated.

[4] = highest frequency across normal donors

Row | Substance | Maximum Fold Change Over Background CD4+ cells [1] | Maximum Fold Change Over Background CD8+ cells [1] | Maximum Frequency of TNFα/IFNγ Double Positive CD4+ T cells [1] | Maximum Frequency of TNFα/IFNγ Double Positive CD8+ T cells [1] | Maximum Fold Change Over Background CD4+ cells ([2]; TNFα+IFNγ+ CD4+ T cells, highest fold change over negative control across normal donors) | Maximum Fold Change Over Background CD8+ cells ([2]; TNFα+IFNγ+ CD8+ T cells, highest fold change over negative control across normal donors) | Maximum Frequency of TNFα/IFNγ Double Positive CD4+ T cells [2, 4] | Maximum Frequency of TNFα/IFNγ Double Positive CD8+ T cells [2, 4] | Exchange rate with allele specific Pos peptide, HLA-A*01:01 (HLA-A*01:01) [%] | Exchange rate with allele specific Pos peptide, HLA-A*02:01 (HLA-A*02:01) [%] | Exchange rate with allele specific Pos peptide, HLA-B*07:02 (HLA-B*07:02) [%] | Exchange rate with allele specific Pos peptide, HLA-A*24:02 (HLA-A*24:02) [%] | Exchange rate with allele specific Pos peptide, HLA-A*03:01 (HLA-A*03:01) [%] | Maximum frequency of TNFα^+IFNγ^+CD8^+ T cells (Percent) ([3]; greatest frequency among all tested PBMC donors) [%] | Immunogenic ([3]; patient PBMC restimulation)
1 | DGHSYTSKVNCLLLQDGFHGCVSITGAAGRRNLSIFLFLMLCKLEFHAC (listed as Homo sapiens) [AS55, SPOCK1 alternative splicing] | 3.50 | 213.88 | 0.063 | 2.05 | 19.38 | 1354.17 | 0.310 | 32.500 | – | – | – | – | – | – | –
2 | P76 (YCMAAPMGL) [Peptide P76] | – | – | – | – | – | – | – | – | 0.1 | 85.9 | 91.5 | −0.5 | 6 | 0.170 | Yes
